This is an account of results in patent publication US12723063B2, “GIPR-agonist compounds” (Eli Lilly and Company, priority 2019, dated 2026).

The target of one test is T1, human GcgR (Homo sapiens, UniProt P47871).
T1 construct: expressed in transfected cells; crude membranes
The test can be described thus: [125I]-Glucagon binding, SPA with WGA beads, 0.1% bacitracin. The conditions noted are these: geometric mean, read-out: hGcgR Ki. The method, then:
Stably transfected cell lines are prepared by subcloning receptor cDNA into a pcDNA3 expression plasmid and transfected into human embryonic kidney (HEK) 293 (hGcgR and hGLP-1R) or Chinese Hamster Ovary (CHO) (hGIPR) cells followed by selection with Geneticin (hGLP-1R and hGIPR) or hygromycin B (hGcgR).
Two methods are used for the preparation of crude cell membranes.
Method 1: Frozen cell pellets are lysed on ice in hypotonic buffer containing 50 mM Tris HCl, pH 7.5, and Roche Complete™ Protease Inhibitors with EDTA. The cell suspension is disrupted using a glass Potter-Elvehjem homogenizer fitted with a Teflon® pestle for 25 strokes. The homogenate is centrifuged at 4° C. at 1100× g for 10 minutes. The supernatant is collected and stored on ice while the pellets are resuspended in homogenization buffer and rehomogenized as described above. The homogenate is centrifuged at 1100× g for 10 minutes. The second supernatant is combined with the first supernatant and centrifuged at 35000× g for 1 hour at 4° C. The resulting membrane pellet is resuspended in homogenization buffer containing protease inhibitors at approximately 1 to 3 mg/mL, quick frozen in liquid nitrogen and stored as aliquots in a −80° C. freezer until use.
Method 2: Frozen cell pellets are lysed on ice in hypotonic buffer containing 50 mM Tris HCl, pH 7.5, 1 mM MgCl2, Roche Complete™ EDTA-free Protease Inhibitors and 25 units/mL DNAse I (Invitrogen). The cell suspension is disrupted using a glass Potter-Elvehjem homogenizer fitted with a Teflon® pestle for 20 to 25 strokes. The homogenate is centrifuged at 4° C. at 1800× g for 15 minutes. The supernatant is collected and stored on ice while the pellets are resuspended in homogenization buffer (without DNAse I) and rehomogenized as described above. The homogenate is centrifuged at 1800× g for 15 minutes. The second supernatant is combined with the first supernatant and centrifuged an additional time at 1800× g for 15 minutes. The overall supernatant is then centrifuged at 25000× g for 30 minutes at 4° C. The resulting membrane pellet is resuspended in homogenization buffer (without DNAse I) containing protease inhibitors at approximately 1 to 3 mg/mL and stored as aliquots in a −80° C. freezer until use.
The human Geg receptor binding assays are performed using a Scintillation Proximity Assay (SPA) format with wheat germ agglutinin (WGA) beads (Perkin Elmer). The binding buffer contains 25 mM 4-(2-hydroxyethyl)-1-piperazineethanesulfonic acid (HEPES), pH 7.4, 2.5 mM CaCl2), 1 mM MgCl2, 0.1% (w/v) bacitracin (Research Products), 0.003% (w/v) Polyoxyethylenesorbitan monolaurate (TWEEN®-20), and Roche Complete™ Protease Inhibitors without EDTA. Peptides and Gcg are thawed and 3-fold serially diluted in 100% DMSO (10 point concentration response curves). Next, 5 μL serially diluted compound or DMSO is transferred into Corning® 3632 clear bottom assay plates containing 45 μL assay binding buffer or unlabeled Gcg control (non-specific binding or NSB, at 1 μM final). […] Plates are sealed and mixed on a plate shaker (setting 6) for 1 minute and read with a PerkinElmer Trilux MicroBeta® scintillation counter after 12 hours of incubation/settling time at room temperature.
Data are analyzed using four-parameter (curve maximum, curve minimum, IC50, Hill slope) nonlinear regression routines (Genedata Screener, version 12.0.4, Genedata AG, Basal, Switzerland). […] Values for Ki are reported as the geometric mean, with error expressed as the standard error of the mean (SEM) and n is equal to the number of independent replicates (determined in assays performed on different days). […] SEM is only calculated when […] or greater. Means are expressed as geometric means with the standard error of the mean (SEM) and the number of replicates (n) indicated in parentheses.

Another test deals with T2, human GLP-1R (Homo sapiens, UniProt P43220).
T2 construct: expressed in transfected cells; crude membranes
T2 sequence (P43220 24-463): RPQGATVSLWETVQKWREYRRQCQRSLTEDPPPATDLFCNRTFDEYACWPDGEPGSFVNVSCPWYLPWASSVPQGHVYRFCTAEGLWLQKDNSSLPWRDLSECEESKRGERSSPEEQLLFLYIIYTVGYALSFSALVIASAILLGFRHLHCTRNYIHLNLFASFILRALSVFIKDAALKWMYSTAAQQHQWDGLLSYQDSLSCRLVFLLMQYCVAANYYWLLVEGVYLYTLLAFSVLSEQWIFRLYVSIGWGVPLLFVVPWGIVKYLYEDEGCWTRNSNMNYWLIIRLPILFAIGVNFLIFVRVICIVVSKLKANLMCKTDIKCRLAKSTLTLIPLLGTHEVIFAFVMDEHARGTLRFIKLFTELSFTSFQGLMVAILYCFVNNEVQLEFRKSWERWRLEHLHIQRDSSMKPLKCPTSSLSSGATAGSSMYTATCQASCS
The test is described as follows: [125I]-GLP-1 binding, SPA with WGA beads, 0.1% bacitracin. As to conditions: geometric mean, read-out: hGLP1R Ki. The essentials: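 Binding buffer was 25 mM HEPES pH 7.4 with 2.5 mM CaCl2, 1 mM MgCl2, 0.1% (w/v) bacitracin, 0.003% Tween-20 and EDTA-free protease inhibitors. Four-parameter regression gave IC50, converted to Ki (geometric mean, SEM, n independent days).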

For the next test, the target named is T3, human GIPR (Homo sapiens, UniProt P48546).
T3 construct: expressed in transfected cells; crude membranes
T3 sequence (P48546 22-466): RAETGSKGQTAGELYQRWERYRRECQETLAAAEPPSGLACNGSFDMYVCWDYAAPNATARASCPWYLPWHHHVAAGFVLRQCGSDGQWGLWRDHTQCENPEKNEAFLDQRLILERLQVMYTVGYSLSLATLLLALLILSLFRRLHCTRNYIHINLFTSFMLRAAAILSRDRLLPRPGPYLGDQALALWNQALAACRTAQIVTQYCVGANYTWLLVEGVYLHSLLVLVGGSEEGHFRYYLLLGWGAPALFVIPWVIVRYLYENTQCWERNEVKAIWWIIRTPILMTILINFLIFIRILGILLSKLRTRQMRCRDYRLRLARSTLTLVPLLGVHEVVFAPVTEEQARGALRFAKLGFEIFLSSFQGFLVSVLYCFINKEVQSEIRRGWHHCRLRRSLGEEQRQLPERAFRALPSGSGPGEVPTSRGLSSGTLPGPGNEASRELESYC
The test can be described thus: [125I]-GIP binding, SPA with WGA beads, 0.1% bacitracin. As to conditions: geometric mean, read-out: hGIPR Ki. The essentials: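 Ki values are geometric means (SEM, n independent days), derived from four-parameter nonlinear regression of IC50. Membranes came from hGIPR-expressing CHO cells.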

pKi: −log10 of the molar value. *1 amine or outer side, *2 acyl side, *3 side chain or, on linkers, in order; H or OH if unused. Where a SMILES comes first, the peptide text is derived from it. Side-chain parts run from the residue outwards. [ ]: non-standard residue; d: D form. The star is where a group is joined. C18 diacid = O=C(O)CCCCCCCCCCCCCCCCC(=O)*; γGlu = O=C(O)[C@H](CCC(=O)[*:2])N[*:1]; 4Pal = N[C@@H](Cc1ccncc1)C(=O)O; AEEA = NCCOCCOCC(=O)O; Aib = CC(C)(N)C(=O)O

T1 sequence (P47871 26-477): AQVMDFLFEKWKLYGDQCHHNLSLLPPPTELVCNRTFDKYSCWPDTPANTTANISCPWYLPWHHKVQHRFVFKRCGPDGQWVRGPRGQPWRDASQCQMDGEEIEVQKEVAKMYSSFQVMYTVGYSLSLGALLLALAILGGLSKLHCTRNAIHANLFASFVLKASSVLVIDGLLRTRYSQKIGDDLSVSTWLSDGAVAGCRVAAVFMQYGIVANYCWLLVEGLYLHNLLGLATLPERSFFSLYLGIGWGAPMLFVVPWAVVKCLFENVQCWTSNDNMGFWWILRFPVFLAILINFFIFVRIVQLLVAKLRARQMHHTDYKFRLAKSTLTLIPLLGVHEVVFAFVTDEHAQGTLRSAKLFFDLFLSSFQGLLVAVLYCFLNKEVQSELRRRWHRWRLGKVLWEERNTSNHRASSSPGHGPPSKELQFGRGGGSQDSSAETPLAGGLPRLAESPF

On to `CC[C@H](C)[C@H](NC(=O)[C@H](CO)NC(=O)[C@H](Cc1ccc(O)cc1)NC(=O)[C@H](CC(=O)O)NC(=O)[C@H](CO)NC(=O)[C@@H](NC(=O)[C@H](Cc1ccccc1)NC(=O)[C@@H](NC(=O)CNC(=O)[C@H](CCC(=O)O)NC(=O)[C@@H](C)NC(=O)[C@@H](N)Cc1ccc(O)cc1)[C@@H](C)O)[C@@H](C)CC)C(=O)N[C@@H](CC(C)C)C(=O)N[C@@H](CC(C)C)C(=O)N[C@@H](CC(=O)O)C(=O)N[C@@H](CCCCN)C(=O)N[C@@H](CCCCNC(=O)COCCOCCNC(=O)COCCOCCNC(=O)CC[C@H](NC(=O)CCCCCCCCCCCCCCCCC(=O)O)C(=O)O)C(=O)N[C@@H](C)C(=O)N[C@@H](CCC(N)=O)C(=O)NC(C)(C)C(=O)N[C@@H](CC(=O)O)C(=O)N[C@@H](Cc1ccccc1)C(=O)N[C@H](C(=O)N[C@@H](CCC(=O)O)C(=O)N[C@@H](Cc1c[nH]c2ccccc12)C(=O)N[C@@H](CC(C)C)C(=O)N[C@@H](CC(C)C)C(=O)N[C@@H](C)C(=O)N[C@@H](CCC(N)=O)C(=O)NCC(=O)N1CCC[C@H]1C(=O)N[C@@H](CO)C(=O)N[C@@H](CO)C(=O)NCC(=O)N[C@@H](C)C(=O)N1CCC[C@H]1C(=O)N1CCC[C@H]1C(=O)N1CCC[C@H]1C(=O)N[C@@H](CO)C(N)=O)C(C)C` [Example 16] (H-Y[dA]EGTFISDYSILLDKK([AEEA-AEEA-γGlu-C18 diacid])AQ[Aib]DFVEWLLAQGPSSGAPPPS-NH2), for which the values for the negative logarithm of the Ki (pKi) on human GcgR, at human GLP-1R and at human GIPR were 6.26, 7.00 and 10.36, respectively.

Turning to `CC[C@H](C)[C@H](NC(=O)[C@H](CO)NC(=O)[C@H](Cc1ccc(O)cc1)NC(=O)[C@H](CC(=O)O)NC(=O)[C@H](CO)NC(=O)[C@@H](NC(=O)[C@H](Cc1ccccc1)NC(=O)[C@@H](NC(=O)CNC(=O)[C@H](CCC(=O)O)NC(=O)[C@@H](C)NC(=O)[C@@H](N)Cc1ccc(O)cc1)[C@@H](C)O)[C@@H](C)CC)C(=O)N[C@@H](CC(C)C)C(=O)N[C@@H](CC(C)C)C(=O)N[C@@H](CC(=O)O)C(=O)N[C@@H](CCCCN)C(=O)N[C@@H](CCCCNC(=O)COCCOCCNC(=O)COCCOCCNC(=O)CC[C@H](NC(=O)CCCCCCCCCCCCCCCCC(=O)O)C(=O)O)C(=O)N[C@@H](C)C(=O)N[C@@H](CCC(N)=O)C(=O)NC(C)(C)C(=O)N[C@@H](CC(=O)O)C(=O)N[C@@H](Cc1ccccc1)C(=O)N[C@H](C(=O)N[C@@H](CC(N)=O)C(=O)N[C@@H](Cc1c[nH]c2ccccc12)C(=O)N[C@@H](CC(C)C)C(=O)N[C@@H](CC(C)C)C(=O)N[C@@H](CCC(=O)O)C(=O)N[C@@H](CCC(N)=O)C(=O)NCC(=O)N1CCC[C@H]1C(=O)N[C@@H](CO)C(=O)N[C@@H](CO)C(=O)NCC(=O)N[C@@H](C)C(=O)N1CCC[C@H]1C(=O)N1CCC[C@H]1C(=O)N1CCC[C@H]1C(=O)N[C@@H](CO)C(N)=O)C(C)C` [Example 17] (H-Y[dA]EGTFISDYSILLDKK([AEEA-AEEA-γGlu-C18 diacid])AQ[Aib]DFVNWLLEQGPSSGAPPPS-NH2), the pKi (usually the negative decadic logarithm of the Ki, by convention in mol/L) at human GcgR is 6.56; on human GLP-1R, 6.97; at human GIPR it was 10.24.

For `CC[C@H](C)[C@H](NC(=O)[C@H](CO)NC(=O)[C@H](Cc1ccc(O)cc1)NC(=O)[C@H](CC(=O)O)NC(=O)[C@H](CO)NC(=O)[C@@H](NC(=O)[C@H](Cc1ccccc1)NC(=O)[C@@H](NC(=O)CNC(=O)[C@H](CCC(=O)O)NC(=O)[C@@H](C)NC(=O)[C@@H](N)Cc1ccc(O)cc1)[C@@H](C)O)[C@@H](C)CC)C(=O)N[C@@H](CC(C)C)C(=O)N[C@@H](CC(C)C)C(=O)N[C@@H](CC(=O)O)C(=O)N[C@@H](CCCCN)C(=O)N[C@@H](CCCCNC(=O)COCCOCCNC(=O)COCCOCCNC(=O)CC[C@H](NC(=O)CCCCCCCCCCCCCCCCC(=O)O)C(=O)O)C(=O)N[C@@H](C)C(=O)N[C@@H](CCC(N)=O)C(=O)NC(C)(C)C(=O)N[C@@H](CC(=O)O)C(=O)N[C@@H](Cc1ccccc1)C(=O)N[C@H](C(=O)N[C@@H](CC(N)=O)C(=O)N[C@@H](Cc1ccncc1)C(=O)N[C@@H](CC(C)C)C(=O)N[C@@H](CC(C)C)C(=O)N[C@@H](C)C(=O)N[C@@H](CCC(N)=O)C(=O)NCC(=O)N1CCC[C@H]1C(=O)N[C@@H](CO)C(=O)N[C@@H](CO)C(=O)NCC(=O)N[C@@H](C)C(=O)N1CCC[C@H]1C(=O)N1CCC[C@H]1C(=O)N1CCC[C@H]1C(=O)N[C@@H](CO)C(N)=O)C(C)C` [Example 18] (H-Y[dA]EGTFISDYSILLDKK([AEEA-AEEA-γGlu-C18 diacid])AQ[Aib]DFVN[4Pal]LLAQGPSSGAPPPS-NH2), the figures for the pKi at human GcgR, on human GLP-1R and at human GIPR were 6.33, 6.80 and 10.48, respectively.

Take `CC[C@H](C)[C@H](NC(=O)[C@H](CO)NC(=O)[C@H](Cc1ccc(O)cc1)NC(=O)[C@H](CC(=O)O)NC(=O)[C@H](CO)NC(=O)[C@@H](NC(=O)[C@H](Cc1ccccc1)NC(=O)[C@@H](NC(=O)CNC(=O)[C@H](CCC(=O)O)NC(=O)[C@@H](C)NC(=O)[C@@H](N)Cc1ccc(O)cc1)[C@@H](C)O)[C@@H](C)CC)C(=O)N[C@@H](CC(C)C)C(=O)N[C@@H](CC(C)C)C(=O)N[C@@H](CC(=O)O)C(=O)N[C@@H](CCCCN)C(=O)N[C@@H](CCCCNC(=O)COCCOCCNC(=O)COCCOCCNC(=O)CC[C@H](NC(=O)CCCCCCCCCCCCCCCCC(=O)O)C(=O)O)C(=O)N[C@@H](C)C(=O)N[C@@H](CCC(N)=O)C(=O)NC(C)(C)C(=O)N[C@@H](CC(=O)O)C(=O)N[C@@H](Cc1ccccc1)C(=O)N[C@H](C(=O)N[C@@H](CC(N)=O)C(=O)N[C@@H](Cc1c[nH]c2ccccc12)C(=O)N[C@@H](CC(C)C)C(=O)N[C@@H](CC(C)C)C(=O)N[C@@H](C)C(=O)NCC(=O)NCC(=O)N1CCC[C@H]1C(=O)N[C@@H](CO)C(=O)N[C@@H](CO)C(=O)NCC(=O)N[C@@H](C)C(=O)N1CCC[C@H]1C(=O)N1CCC[C@H]1C(=O)N1CCC[C@H]1C(=O)N[C@@H](CO)C(N)=O)C(C)C` [Example 19] (H-Y[dA]EGTFISDYSILLDKK([AEEA-AEEA-γGlu-C18 diacid])AQ[Aib]DFVNWLLAGGPSSGAPPPS-NH2): the pKi is 6.47 on human GcgR, 7.82 on human GLP-1R and 10.33 on human GIPR.
